Laboratory results reported in PMC11891579, “Fluorescent PyrAte-(S)-citalopram conjugates enable imaging of the serotonin transporter in living tissue” (Chemical Science, 2025).
“Also recorded” adds a separate entry of the source.

What was measured:
[1] = target: T1, mCherry-SERT-expressing HEK293 cells (Homo sapiens, UniProt P31645); assay: confocal microscopy of membrane staining; format: cell-based; conditions: for membrane staining of mCherry-SERT HEK293 cells: 20 nM
T1 construct: expressed in transfected cells
T1 sequence (P31645 whole entry): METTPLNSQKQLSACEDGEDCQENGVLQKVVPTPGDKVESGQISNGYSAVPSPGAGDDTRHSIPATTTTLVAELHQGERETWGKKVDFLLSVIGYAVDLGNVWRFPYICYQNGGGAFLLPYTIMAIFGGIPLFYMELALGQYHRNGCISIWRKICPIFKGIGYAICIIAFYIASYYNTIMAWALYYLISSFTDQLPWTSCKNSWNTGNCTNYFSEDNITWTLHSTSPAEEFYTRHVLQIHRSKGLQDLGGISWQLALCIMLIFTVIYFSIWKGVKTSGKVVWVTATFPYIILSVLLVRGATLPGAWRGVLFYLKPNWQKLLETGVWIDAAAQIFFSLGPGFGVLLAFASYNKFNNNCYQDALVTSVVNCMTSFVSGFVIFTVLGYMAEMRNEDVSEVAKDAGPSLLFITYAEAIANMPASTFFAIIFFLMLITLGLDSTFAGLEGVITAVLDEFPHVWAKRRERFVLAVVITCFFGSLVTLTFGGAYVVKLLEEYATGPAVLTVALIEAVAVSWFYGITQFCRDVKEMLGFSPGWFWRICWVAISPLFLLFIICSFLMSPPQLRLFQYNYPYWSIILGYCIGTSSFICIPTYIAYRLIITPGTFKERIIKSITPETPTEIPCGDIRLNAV
Method: Prior to imaging, cell culture medium was replaced with pre-warmed KHB. HEK293 cells expressing mCherry-SERT were imaged using a Nikon A1R laser scanning confocal microscope equipped with a GaAsP detector, using a 60× oil-immersion objective. PyrAtes dissolved in DMSO were diluted in KHB (0.1% v/v) to make solutions with the desired final concentration (20 nM, 100 nM), which were added to each well containing the cells. To test specific binding, cells were pre-incubated with 10 – 30 µM paroxetine for 10 minutes. PyrAtes were excited using a 405 nm laser, and its fluorescent signals collected using 525/50 nm emission filters; mCherry was excited using a 561 nm laser, and fluorescence was collected using 595/50 nm emission filters. Images were captured prior to and at specific time points after addition of the PyrAte compounds using NIS-Elements software. […]
Cells were voltage-clamped (−60 mV) and continuously superfused with a physiological external solution containing 140mM NaCl, 2.5 mM CaCl2,2mM MgCl2, 20mM glucose and 10mM HEPES, pH= 7.4. Micropipettes were made from borosilicate glass capillaries with a resistance ranging from 2.5 – 6 MΩ using a P-97 micropipette puller (Sutter Instrument), which were then filled with an internal solution containing 133mM K-gluconate, 6mM NaCl, 1mM CaCl2, 0.7 mM MgCl2, 10mM HEPES, 10mM EGTA, pH= 7.2. For the measurements we used an amplifier […] and pClamp 11.2 software (MDS Analytical Technologies, Sunnyvale, CA, USA). The compounds were diluted the day of the experiments in external solutions and applied using a DAD-12 superfusion system with a 8-tube perfusion manifold (ALA Scientific Instruments, Farmingdale, NY, USA), guaranteeing rapid solution exchange. Current traces were filtered at 1 kHz and digitized at 10 kHz using a Digidata 1550 (MDS Analytical Technologies). […]

SERT = target: T2, SERT (Homo sapiens, UniProt P31645); assay: radioligand binding assay, [3H]-imipramine competition in SERT-containing membrane fractions; conditions: 3 nM [3H]-imipramine; membranes of HEK293 YhSERT; mean ± SD of three experiments; Cheng-Prusoff; read-out: Ki, competitive binding with imipramine
T2 construct: expressed in transfected cells
T2 sequence (P31645 whole entry): as above
Method: ten minutes (for [3H]MPP+), by exchange of the substrate-containing buffer with 0.2 mL ice-cold KHB.
The KHB was aspirated immediately. Cells were lysed and prepared for [3H] content analysis by adding 0.2 mL Ultima Gold™ XR liquid scintillation cocktail. […]
microplate liquid scintillation counter. Non-specific uptake was determined in the presence of 30 µM paroxetine (for YhSERT), 50 µM GBR12909 (for YhDAT and hNET), or 100 µM decynium-22 (for YhOCT3).
For radioligand binding assays, membranes were first prepared from HEK293 cells stably expressing YhSERT. Cells were harvested from dishes using a plastic scraper and ice-cold PBS. Cells were recovered as a pellet after centrifugation (400× g) for 10 min at 4°C, and then re-suspended in HME buffer. The cell suspension was frozen rapidly by immersing in liquid N2, and then immediately thawed and sonicated for three 12 pulses/min cycles. Membrane fractions were collected after centrifugation at 40000× g for 15 minutes, and then re-suspended in HME buffer. Protein concentration was determined using Coomassie Brilliant Blue kit (BioRad Laboratories, California, USA). The binding reactions were carried out in a final volume of 0.25 mL B2 buffer containing 15 µg membranes, 3 nM

Row | staining of mCherry-SERT HEK293 cells ([1]; 100 nM) | Ki (SERT) | Compound | membrane staining of mCherry-SERT HEK293 cells ([1]; 60 min incubation, absent with paroxetine) | membrane staining of mCherry-SERT HEK293 cells ([1]; 30 min incubation, blocked by 30 μM paroxetine)
1 | – | – | CCN(CC)c1ccc(-c2cc[n+]3c(-c4ccccc4)c(N4CCCC4)n(CCCC(=O)NCc4ccc5c(c4)CO[C@@]5(CCCN(C)C)c4ccc(F)cc4)c3c2)cc1 [PYR-C3-CIT, PyrAte-C3-(S)-citalopram] | enhanced co-localization of PyrAte and mCherrySERT signals and no internalization; also recorded: SERT-specific membrane staining | –
2 | mitochondrial staining | 110 ± 70 nM | CCN(CC)c1ccc(-c2cc[n+]3c(-c4ccccc4)c(N4CCCC4)n(CCCCCCC(=O)NCc4ccc5c(c4)CO[C@@]5(CCCN(C)C)c4ccc(F)cc4)c3c2)cc1 [PYR-C6-CIT, PyrAte-C6-(S)-citalopram] | – | binds specifically to membrane-expressed SERT; also recorded: SERT-specific membrane staining
